Data published in patent US9133206B2, “Benzodiazepine and pyridodiazepine derivatives” (AbbVie Inc., priority 2010, dated 2015).

Tested on: SK-N-SH human neuroblastoma cells
Assay: Serum Deprivation/JC-1 Mitochondrial Membrane Potential (MMP) Assay
Format: cell-based
Settings: for EC50: serum deprivation ~18 hours, JC-1 ratio normalized to peak value for 10 μM dimebolin, single curve fit to mean data of n=2-3; for Emax: read-out: JC-1 max %; for activation at 3 µM: single dose 3 μM, JC-1 ratio normalized to peak value for 10 μM dimebolin (n=2-4), read-out: JC-1 max % (@ 3 μM)
How it was run: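 SK-N-SH cells serum-deprived ~18 h with compound, then stained with JC-1 for 40 min at 37 °C; red (560/595 nm) to green (485/535 nm) ratio reports membrane potential. Response normalized to peak from 10 μM dimebolin; EC50 from fit to mean of n=2–3, or single-dose 3 μM; DMSO ≤1%.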

[1] = Homo sapiens, SK-N-SH, percent maximal intensity in JC-1 ratio normalized to peak value for 10 μM dimebolin, serum deprivation
[2] = Homo sapiens, serum deprivation

SMILES | EC50 (Homo sapiens, SK-N-SH, 18 h) [µM] | Emax [1] [%] | activation at 3 µM [2] [%] | other results
CC1(C(=O)N2Cc3ccccc3N3CCN(Cc4ccccc4)CC3C2)CC1 (centres unmarked) [Example 114, (3-benzyl-1,2,3,4,4a,5-hexahydropyrazino[1,2-a][1,4]benzodiazepin-6(7H)-yl)(1-methylcyclopropyl)methanone] | 4.36 | 201 |  | 
O=C(C1CCC1)N1Cc2ccccc2N2CCN(Cc3ccccc3)CC2C1 (centres unmarked) [Example 115, (3-benzyl-1,2,3,4,4a,5-hexahydropyrazino[1,2-a][1,4]benzodiazepin-6(7H)-yl)(cyclobutyl)methanone] | 1.25 | 177 |  | 
CC1CC1C(=O)N1Cc2ccccc2N2CCN(Cc3ccccc3)CC2C1 (centres unmarked) [Example 116, (3-benzyl-1,2,3,4,4a,5-hexahydropyrazino[1,2-a][1,4]benzodiazepin-6(7H)-yl)(2-methylcyclopropyl)methanone] |  |  | 198 | 
O=C(CC(F)(F)F)N1Cc2ccccc2N2CCN(Cc3ccccc3)CC2C1 (centres unmarked) [Example 117, 1-(3-benzyl-1,2,3,4,4a,5-hexahydropyrazino[1,2-a][1,4]benzodiazepin-6(7H)-yl)-3,3,3-trifluoropropan-1-one] |  |  | 70 | 
O=C(C1CCCO1)N1Cc2ccccc2N2CCN(Cc3ccccc3)CC2C1 (centres unmarked) [Example 118, (3-benzyl-1,2,3,4,4a,5-hexahydropyrazino[1,2-a][1,4]benzodiazepin-6(7H)-yl)(tetrahydrofuran-2-yl)methanone] |  |  | 84 | 
COc1ccc(CN2Cc3ccccc3N3CCN(Cc4ccccc4)CC3C2)cc1C (centres unmarked) [Example 119, 3-benzyl-6-(4-methoxy-3-methylbenzyl)-1,2,3,4,4a,5,6,7-octahydropyrazino[1,2-a][1,4]benzodiazepine] | 3.95 | 172 |  | 
Cc1cc(CN2Cc3ccccc3N3CCN(Cc4ccccc4)CC3C2)oc1C (centres unmarked) [Example 120, 3-benzyl-6-[(4,5-dimethyl-2-furyl)methyl]-1,2,3,4,4a,5,6,7-octahydropyrazino[1,2-a][1,4]benzodiazepine] |  |  | -5 | 
CCOc1ccc(CN2Cc3ccccc3N3CCN(Cc4ccccc4)CC3C2)cc1 (centres unmarked) [Example 121, 3-benzyl-6-(4-ethoxybenzyl)-1,2,3,4,4a,5,6,7-octahydropyrazino[1,2-a][1,4]benzodiazepine] | 4.21 | 167 |  | 
Cc1ccc(CN2Cc3ccccc3N3CCN(Cc4ccccc4)CC3C2)s1 (centres unmarked) [Example 122, 3-benzyl-6-[(5-methyl-2-thienyl)methyl]-1,2,3,4,4a,5,6,7-octahydropyrazino[1,2-a][1,4]benzodiazepine] | 3.4 | 133 |  | 
Brc1ccc(CN2Cc3ccccc3N3CCN(Cc4ccccc4)CC3C2)cc1 (centres unmarked) [Example 123, 3-benzyl-6-(4-bromobenzyl)-1,2,3,4,4a,5,6,7-octahydropyrazino[1,2-a][1,4]benzodiazepine] |  |  |  | JC-1 max % (percent maximal intensity in JC-1 ratio normalized to peak value for 10 μM dimebolin, serum deprivation): 186%; EC50: 3.44 µM
c1ccc(CN2CCN3c4ccccc4CN(Cc4ccc5ccccc5c4)CC3C2)cc1 (centres unmarked) [Example 124, 3-benzyl-6-(2-naphthylmethyl)-1,2,3,4,4a,5,6,7-octahydropyrazino[1,2-a][1,4]benzodiazepine] | 3.49 | 193 |  | 
c1ccc(CN2CCN3c4ccccc4CN(CC4CCCC4)CC3C2)cc1 (centres unmarked) [Example 125, 3-benzyl-6-(cyclopentylmethyl)-1,2,3,4,4a,5,6,7-octahydropyrazino[1,2-a][1,4]benzodiazepine] | 4.26 | 98 |  | 
c1ccc(CN2CCN3c4ccccc4CN(Cc4ccc5ccccc5n4)CC3C2)cc1 (centres unmarked) [Example 126, 3-benzyl-6-(quinolin-2-ylmethyl)-1,2,3,4,4a,5,6,7-octahydropyrazino[1,2-a][1,4]benzodiazepine] | 1.89 | 150 |  | 
CCc1ccc(CN2Cc3ccccc3N3CCN(Cc4ccccc4)CC3C2)o1 (centres unmarked) [Example 127, 3-benzyl-6-[(5-ethyl-2-furyl)methyl]-1,2,3,4,4a,5,6,7-octahydropyrazino[1,2-a][1,4]benzodiazepine] |  |  | 26 | 
N#Cc1ccc(CN2Cc3ccccc3N3CCN(Cc4ccccc4)CC3C2)cc1 (centres unmarked) [Example 128, 4-[(3-benzyl-1,2,3,4,4a,5-hexahydropyrazino[1,2-a][1,4]benzodiazepin-6(7H)-yl)methyl]benzonitrile] | 4.25 | 168 |  | 
CCCCN1Cc2ccccc2N2CCN(Cc3ccccc3)CC2C1 (centres unmarked) [Example 129, 3-benzyl-6-butyl-1,2,3,4,4a,5,6,7-octahydropyrazino[1,2-a][1,4]benzodiazepine] |  |  | 40 | 
Clc1ccc(CN2Cc3ccccc3N3CCN(Cc4ccccc4)CC3C2)cc1 (centres unmarked) [Example 130, 3-benzyl-6-(4-chlorobenzyl)-1,2,3,4,4a,5,6,7-octahydropyrazino[1,2-a][1,4]benzodiazepine] | 4 | 181 |  | 
Cc1ccccc1CN1Cc2ccccc2N2CCN(Cc3ccccc3)CC2C1 (centres unmarked) [Example 131, 3-benzyl-6-(2-methylbenzyl)-1,2,3,4,4a,5,6,7-octahydropyrazino[1,2-a][1,4]benzodiazepine] | 3.22 | 144 |  | 

SMILES | EC50 (Homo sapiens, SK-N-SH, 18 h) [µM] | Emax [1] [%] | activation at 3 µM [2] [%] | other results
Brc1ccccc1CN1Cc2ccccc2N2CCN(Cc3ccccc3)CC2C1 (centres unmarked) [Example 132, 3-benzyl-6-(2-bromobenzyl)-1,2,3,4,4a,5,6,7-octahydropyrazino[1,2-a][1,4]benzodiazepine] | 3.33 | 192 |  | 
COc1ccccc1CN1Cc2ccccc2N2CCN(Cc3ccccc3)CC2C1 (centres unmarked) [Example 133, 3-benzyl-6-(2-methoxybenzyl)-1,2,3,4,4a,5,6,7-octahydropyrazino[1,2-a][1,4]benzodiazepine] | 3.64 | 163 |  | 
COc1ccc(CN2Cc3ccccc3N3CCN(Cc4ccccc4)CC3C2)cc1 (centres unmarked) [Example 134, 3-benzyl-6-(4-methoxybenzyl)-1,2,3,4,4a,5,6,7-octahydropyrazino[1,2-a][1,4]benzodiazepine] | 3.53 | 163 |  | 
COc1cccc(CN2Cc3ccccc3N3CCN(Cc4ccccc4)CC3C2)c1 (centres unmarked) [Example 135, 3-benzyl-6-(3-methoxybenzyl)-1,2,3,4,4a,5,6,7-octahydropyrazino[1,2-a][1,4]benzodiazepine] | 4.19 | 154 |  | 
Brc1cccc(CN2Cc3ccccc3N3CCN(Cc4ccccc4)CC3C2)c1 (centres unmarked) [Example 136, 3-benzyl-6-(3-bromobenzyl)-1,2,3,4,4a,5,6,7-octahydropyrazino[1,2-a][1,4]benzodiazepine] | 2.2 | 172 |  | 
Cc1ccc(CN2Cc3ccccc3N3CCN(Cc4ccccc4)CC3C2)cc1 (centres unmarked) [Example 137, 3-benzyl-6-(4-methylbenzyl)-1,2,3,4,4a,5,6,7-octahydropyrazino[1,2-a][1,4]benzodiazepine] | 3.3 | 143 |  | 
c1ccc(CN2CCN3c4ccccc4CN(Cc4cccc5ccccc45)CC3C2)cc1 (centres unmarked) [Example 138, 3-benzyl-6-(1-naphthylmethyl)-1,2,3,4,4a,5,6,7-octahydropyrazino[1,2-a][1,4]benzodiazepine] | 1.83 | 203 |  | 
Clc1ccccc1CN1Cc2ccccc2N2CCN(Cc3ccccc3)CC2C1 (centres unmarked) [Example 139, 3-benzyl-6-(2-chlorobenzyl)-1,2,3,4,4a,5,6,7-octahydropyrazino[1,2-a][1,4]benzodiazepine] | 3.18 | 145 |  | 
Clc1cccc(CN2Cc3ccccc3N3CCN(Cc4ccccc4)CC3C2)c1 (centres unmarked) [Example 140, 3-benzyl-6-(3-chlorobenzyl)-1,2,3,4,4a,5,6,7-octahydropyrazino[1,2-a][1,4]benzodiazepine] | 3.6 | 189 |  | 
CC(C)(C)CN1Cc2ccccc2N2CCN(Cc3ccccc3)CC2C1 (centres unmarked) [Example 141, 3-benzyl-6-(2,2-dimethylpropyl)-1,2,3,4,4a,5,6,7-octahydropyrazino[1,2-a][1,4]benzodiazepine] |  |  | 12 | 
Cc1ccsc1CN1Cc2ccccc2N2CCN(Cc3ccccc3)CC2C1 (centres unmarked) [Example 142, 3-benzyl-6-[(3-methyl-2-thienyl)methyl]-1,2,3,4,4a,5,6,7-octahydropyrazino[1,2-a][1,4]benzodiazepine] |  |  | 13 | 
CC(C)CCN1Cc2ccccc2N2CCN(Cc3ccccc3)CC2C1 (centres unmarked) [Example 143, 3-benzyl-6-(3-methylbutyl)-1,2,3,4,4a,5,6,7-octahydropyrazino[1,2-a][1,4]benzodiazepine] |  |  | 30 | 
c1ccc(CN2CCN3c4ccccc4CN(CC4CCCCC4)CC3C2)cc1 (centres unmarked) [Example 144, 3-benzyl-6-(cyclohexylmethyl)-1,2,3,4,4a,5,6,7-octahydropyrazino[1,2-a][1,4]benzodiazepine] | 3.63 | 132 |  | 
Cc1cccc(CN2Cc3ccccc3N3CCN(Cc4ccccc4)CC3C2)c1 (centres unmarked) [Example 145, 3-benzyl-6-(3-methylbenzyl),-1,2,3,4,4a,5,6,7-octahydropyrazino[1,2-a][1,4]benzodiazepine] | 3.14 | 151 |  | 
N#Cc1cccc(CN2Cc3ccccc3N3CCN(Cc4ccccc4)CC3C2)c1 (centres unmarked) [Example 146, 3-[(3-benzyl-1,2,3,4,4a,5-hexahydropyrazino[1,2-a][1,4]benzodiazepin-6(7H)-yl)methyl]benzonitrile] | 2.2 | 182 |  | 
c1ccc(CN2CCN3c4ccccc4CN(Cc4cccs4)CC3C2)cc1 (centres unmarked) [Example 147, 3-benzyl-6-(2-thienylmethyl)-1,2,3,4,4a,5,6,7-octahydropyrazino[1,2-a][1,4]benzodiazepine] |  |  | 1.7 | 
CC(C)CN1Cc2ccccc2N2CCN(Cc3ccccc3)CC2C1 (centres unmarked) [Example 148, 3-benzyl-6-isobutyl-1,2,3,4,4a,5,6,7-octahydropyrazino[1,2-a][1,4]benzodiazepine] |  |  | 38 | 
